# Tests used:
# Format in all cases: functional
# Candida albicans [1] = experiment: Compound was tested for antifungal activity against growth of two strains Candida glabrata
# Candida parapsilosis = experiment: Compound was tested for antifungal activity against growth of two strains Candida parapsilosis; settings: Lodderomyces parapsilosis
# Pichia kudriavzevii = experiment: Compound was tested for antifungal activity against growth of three strains Candida krusei
# Candida albicans [2] = experiment: Compound was tested for antifungal activity against growth of three strains of Candida albicans
smiles,measurement,setting,value
OC(Cn1cncn1)(Cn1cncn1)c1ccc(F)cc1F [FLUCONAZOLE],MIC80,Candida albicans [1],> 48 µg/mL
same,MIC80,Candida parapsilosis,< 12 µg/mL
same,MIC80,Pichia kudriavzevii,> 48 µg/mL
same,MIC80,Candida albicans [2],< 1.5 µg/mL

# From ChEMBL document CHEMBL1133343, “Synthesis and antifungal activity of a ferrocene-fluconazole analogue” (2000)
